Assay results reported in patent publication US20230257385A1, “SALT AND SOLID FORMS OF TABERNANTHALOG” (priority 2021, published 2023).

Columns and labels:
[1] = Suspension equilibration of sorbate salt at 20 and 40° C. (Example 10, Experiments 3, 4, 9); type: physicochemical; conditions: one solvent per sample; for Observations (t = 1 d @ 40° C.) / Observations (t = 10 d @ 40° C.) / Observations (t = 1 d @ 20° C.) / Observations (t = 10 d @ 20° C.): sorbate salt Form A in 5 vol solvent; for Observations (t = 0 @ 40° C.) / Observations (t = 0 @ 20° C.): sorbate salt Form A, ca. 50 mg in 5 vol solvent; for XRPD (IPC, 6 d, wet): moist pellet after 6 d; for XRPD (post oven dried): pellet after oven drying
Experimental: The purpose of this panel is to determine if Form A evolves into a supra-ordinate form. The companion panel at 40° C. set-point is in place to detect enantiotropic behaviour via different relative proportions in different solvents. XRPD data of the moist pellets obtained from the suspension equilibration study at 20° C.
The relevant solvent (5 vol) was added to the appropriate vial and the suspensions were stirred and warmed to the predetermined temperature with stirring. […]

[2] = Qualitative solubility screen of Tabernanthalog sorbate salt (Example 10, Experiment 2); type: physicochemical; conditions: Tabernanthalog sorbate salt (input Form A), one solvent per sample; for Assignment (wet pellet XRPD): product crystallised in solubility screen, centrifuged wet pellet; for Assignment (dry pellet XRPD): same pellets dried under reduced pressure
Experimental: The qualitative solubility screen was carried out to determine the range of solvents incorporated into future suspension equilibration panels. Products that crystallised were centrifuged and analysed as wet pellet by XRPD, dried under reduced pressure and re-analysed by XRPD, with selected samples further analysed by TGA and ^1H NMR spectroscopy.
If insoluble at 5 vol, the solvent quantity was increased to 10 vol, 15 vol and 20 vol of the respective solvent. The suspensions that occurred upon cooling down were centrifuged and the solvent wet pellets were analysed by XRPD.
The insoluble suspensions were additionally worked up for XRPD analysis. The resultant powder patterns were subsequently cross-referenced against the input supplied material.

[3] = suspension equilibration at 40° C.
[4] = suspension equilibration at 20° C.

Structure (SMILES) | Observations (t = 1 d @ 40° C.) [1] | Observations (t = 10 d @ 40° C.) [1] | Observations (t = 0 @ 40° C.) [1] | XRPD (IPC, 6 d, wet) [1, 3] | XRPD (post oven dried) [1, 3] | Assignment (wet pellet XRPD) [2] | Assignment (dry pellet XRPD) [2] | other results
C/C=C/C=C/C(=O)O.COc1ccc2c3c([nH]c2c1)CCN(C)CC3 [Experiment 4-Sample H] | Suspension | Suspension | Suspension | Pattern #3 | Form A | – | – | –
C/C=C/C=C/C(=O)O.COc1ccc2c3c([nH]c2c1)CCN(C)CC3 [Experiment 4-Sample B] | Suspension | Suspension | Suspension | Form A | Form A | – | – | –
C/C=C/C=C/C(=O)O.COc1ccc2c3c([nH]c2c1)CCN(C)CC3 [Experiment 4-Sample Q] | Suspension | Suspension | Suspension | Form A | Form A | – | – | –
C/C=C/C=C/C(=O)O.COc1ccc2c3c([nH]c2c1)CCN(C)CC3 [Experiment 4-Sample R] | Suspension | Suspension | Suspension | Pattern #4 | Form A | – | – | –
CC=CC=CC(=O)O.COc1ccc2c3c([nH]c2c1)CCN(C)CC3 [Experiment 4-Sample N] | Suspension | Suspension | Suspension | Form A | Form A | – | – | –
CC=CC=CC(=O)O.COc1ccc2c3c([nH]c2c1)CCN(C)CC3 [Experiment 3-Sample F] | – | – | – | – | – | – | – | Observations (t = 1 d @ 20° C.) [1]: Suspension; Observations (t = 10 d @ 20° C.) [1]: Suspension; Observations (t = 0 @ 20° C.) [1]: Suspension; XRPD (IPC, 6 d, wet) [1, 4]: Form A; XRPD (post oven dried) [1, 4]: Form A
CC=CC=CC(=O)O.COc1ccc2c3c([nH]c2c1)CCN(C)CC3 [Experiment 3-Sample N] | – | – | – | – | – | – | – | Observations (t = 1 d @ 20° C.) [1]: Suspension; Observations (t = 10 d @ 20° C.) [1]: Suspension; Observations (t = 0 @ 20° C.) [1]: Suspension; XRPD (IPC, 6 d, wet) [1, 4]: Form A; XRPD (post oven dried) [1, 4]: Form A
CC=CC=CC(=O)O.COc1ccc2c3c([nH]c2c1)CCN(C)CC3 [Experiment 3-Sample O] | – | – | – | – | – | – | – | Observations (t = 1 d @ 20° C.) [1]: Suspension; Observations (t = 10 d @ 20° C.) [1]: Suspension; Observations (t = 0 @ 20° C.) [1]: Suspension; XRPD (IPC, 6 d, wet) [1, 4]: Form A; XRPD (post oven dried) [1, 4]: Form A
CC=CC=CC(=O)O.COc1ccc2c3c([nH]c2c1)CCN(C)CC3.O | – | – | – | – | – | Pattern #1 | Converted into Form A | –
CC=CC=CC(=O)O.COc1ccc2c3c([nH]c2c1)CCN(C)CC3 [Experiment 3-Sample B] | – | – | – | – | – | – | – | Observations (t = 1 d @ 20° C.) [1]: Suspension; Observations (t = 10 d @ 20° C.) [1]: Suspension; Observations (t = 0 @ 20° C.) [1]: Suspension; XRPD (IPC, 6 d, wet) [1, 4]: Form A; XRPD (post oven dried) [1, 4]: Form A
CC=CC=CC(=O)O.COc1ccc2c3c([nH]c2c1)CCN(C)CC3 [Experiment 4-Sample G] | Suspension | Suspension | Suspension | Form A | Form A | – | – | –
C/C=C/C=C/C(=O)O.COc1ccc2c3c([nH]c2c1)CCN(C)CC3 [Experiment 4-Sample C] | Suspension | Suspension | Suspension | Form A | Form A | – | – | –
C/C=C/C=C/C(=O)O.COc1ccc2c3c([nH]c2c1)CCN(C)CC3 [Experiment 4-Sample O] | Suspension | Suspension | Suspension | – | – | – | – | –
C/C=C/C=C/C(=O)O.COc1ccc2c3c([nH]c2c1)CCN(C)CC3 [Experiment 2-Sample N1] | – | – | – | – | – | Form A + split reflections | Form A | –
CC=CC=CC(=O)O.COc1ccc2c3c([nH]c2c1)CCN(C)CC3 [Experiment 3-Sample R] | – | – | – | – | – | – | – | Observations (t = 1 d @ 20° C.) [1]: Suspension; Observations (t = 10 d @ 20° C.) [1]: Suspension; Observations (t = 0 @ 20° C.) [1]: Suspension; XRPD (IPC, 6 d, wet) [1, 4]: Pattern #2; XRPD (post oven dried) [1, 4]: Form A
C/C=C/C=C/C(=O)O.COc1ccc2c3c([nH]c2c1)CCN(C)CC3 [Experiment 4-Sample M] | Suspension | Suspension | Suspension | Form A | Form A | – | – | –
COc1ccc2c3c([nH]c2c1)CCN(C)CC3 [Experiment 2-Sample D1] | – | – | – | – | – | Form A | Form A | Assignment (wet pellet XRPD) ([2]; listed as Experiment 2-Sample E1): Form A + split reflections 5.90º,

Structure (SMILES) | Observations (t = 1 d @ 40° C.) [1] | Observations (t = 10 d @ 40° C.) [1] | Observations (t = 0 @ 40° C.) [1] | XRPD (IPC, 6 d, wet) [1, 3] | XRPD (post oven dried) [1, 3] | Assignment (wet pellet XRPD) [2] | Assignment (dry pellet XRPD) [2] | other results
CC=CC=CC(=O)O.COc1ccc2c3c([nH]c2c1)CCN(C)CC3 [Experiment 2-Sample P1] | – | – | – | – | – | Form A | Form A | –
CC=CC=CC(=O)O.COc1ccc2c3c([nH]c2c1)CCN(C)CC3 [Experiment 2-Sample H1] | – | – | – | – | – | Form A + new shoulders | Form A + new shoulders | –
C/C=C/C=C/C(=O)O.COc1ccc2c3c([nH]c2c1)CCN(C)CC3 [Experiment 4-Sample A] | Suspension | Suspension | Suspension | Form A | Form A | – | – | –
CC=CC=CC(=O)O.COc1ccc2c3c([nH]c2c1)CCN(C)CC3 [Experiment 3-Sample S] | – | – | – | – | – | – | – | Observations (t = 1 d @ 20° C.) [1]: Solution; Observations (t = 0 @ 20° C.) [1]: Solution
CC=CC=CC(=O)O.COc1ccc2c3c([nH]c2c1)CCN(C)CC3 [Experiment 3-Sample L] | – | – | – | – | – | – | – | Observations (t = 1 d @ 20° C.) [1]: Suspension; Observations (t = 10 d @ 20° C.) [1]: Suspension; Observations (t = 0 @ 20° C.) [1]: Suspension; XRPD (IPC, 6 d, wet) [1, 4]: Form A; XRPD (post oven dried) [1, 4]: Form A
C/C=C/C=C/C(=O)O.COc1ccc2c3c([nH]c2c1)CCN(C)CC3 [Experiment 4-Sample P] | Suspension | Suspension | Suspension | Form A | Form A | – | – | –
CC=CC=CC(=O)O.COc1ccc2c3c([nH]c2c1)CCN(C)CC3 [Experiment 4-Sample I] | Suspension | Suspension | Suspension | Form A | Form A | – | – | –
CC=CC=CC(=O)O.COc1ccc2c3c([nH]c2c1)CCN(C)CC3 [Experiment 2-Sample O1] | – | – | – | – | – | Form A + split reflections | Form A | –
CC=CC=CC(=O)O.COc1ccc2c3c([nH]c2c1)CCN(C)CC3 [Experiment 2-Sample I1] | – | – | – | – | – | Oiled | – | –
CC=CC=CC(=O)O.COc1ccc2c3c([nH]c2c1)CCN(C)CC3 [Experiment 3-Sample M] | – | – | – | – | – | – | – | Observations (t = 1 d @ 20° C.) [1]: Suspension; Observations (t = 10 d @ 20° C.) [1]: Suspension; Observations (t = 0 @ 20° C.) [1]: Suspension; XRPD (IPC, 6 d, wet) [1, 4]: Form A; XRPD (post oven dried) [1, 4]: Form A
CC=CC=CC(=O)O.COc1ccc2c3c([nH]c2c1)CCN(C)CC3 [Experiment 2-Sample R1] | – | – | – | – | – | Form A | Form A | –
CC=CC=CC(=O)O.COc1ccc2c3c([nH]c2c1)CCN(C)CC3 [Experiment 2-Sample J1] | – | – | – | – | – | Form A, some shift of d-spacings | Form A | –
CC=CC=CC(=O)O.COc1ccc2c3c([nH]c2c1)CCN(C)CC3 [Experiment 2-Sample M1] | – | – | – | – | – | Form A + shoulder 22.89º 2 | Form A + new shoulder | –
COc1ccc2c3c([nH]c2c1)CCN(C)CC3.O=C(O)/C=C/C(=O)O [Experiment 2-Sample C1] | – | – | – | – | – | Form A | Form A | –
CC=CC=CC(=O)O.COc1ccc2c3c([nH]c2c1)CCN(C)CC3 [Experiment 2-Sample G1] | – | – | – | – | – | Form A | Form A | –
CC=CC=CC(=O)O.COc1ccc2c3c([nH]c2c1)CCN(C)CC3 [Experiment 2-Sample L1] | – | – | – | – | – | Form A | Form A | –
CC=CC=CC(=O)O.COc1ccc2c3c([nH]c2c1)CCN(C)CC3 [Experiment 2-Sample Q1] | – | – | – | – | – | Form A + new shoulders | Form A | –
